Measured values reported in PubChem BioAssay AID1259411 (Chemical Carcinogenesis Research Information System (CCRIS), 2018).
Activity calls are given as the source filed them. No rule for the calls is given here.

Tested on: rodent carcinogenicity bioassays, tumor incidence
Test: CCRIS carcinogenicity studies
Method in brief: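 NCI-built, expert-reviewed records of carcinogenicity and related test outcomes (mutagenicity, tumor promotion/inhibition) compiled from published and report sources, historical span 1985-2011, not updated.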

C=CCc1ccc(O)c(OC)c1
carcinogen call (Species: MOUSE, Strain/Sex: B6C3F1/FEMALE, Route: ORAL, Dose: 0, 3000, 6000 PPM IN DIET FOR 103 WK (STUDY DURATION: 103 WK), Dose: 0, 3000, 6000 PPM IN DIET FOR 103 WK (STUDY DURATION: 103 WK), Tumor Site: Type of Lesion: LIVER: HEPATOCELLULAR ADENOMA OR CARCINOMA): equivocal
carcinogen call (Species: MOUSE, Strain/Sex: B6C3F1/MALE, Route: ORAL, Dose: 0, 3000, 6000 PPM IN DIET FOR 103 WK (STUDY DURATION: 103 WK), Dose: 0, 3000, 6000 PPM IN DIET FOR 103 WK (STUDY DURATION: 103 WK), Tumor Site: Type of Lesion: LIVER: HEPATOCELLULAR ADENOMA, HEPATOCELLULAR CARCINOMA): equivocal
carcinogen call (Species: RAT, Strain/Sex: F344/FEMALE, Route: ORAL, Dose: 0, 6000, 12500 PPM IN DIET FOR 103 WK (STUDY DURATION: 103 WK), Dose: 0, 6000, 12500 PPM IN DIET FOR 103 WK (STUDY DURATION: 103 WK)): inactive; negative
carcinogen call (Species: RAT, Strain/Sex: F344/MALE, Route: ORAL, Dose: 0, 3000, 6000 PPM IN DIET FOR 103 WK (STUDY DURATION: 103 WK), Dose: 0, 3000, 6000 PPM IN DIET FOR 103 WK (STUDY DURATION: 103 WK)): inactive; negative

CCc1ccc(C(c2ccc(CC)cc2)C(Cl)Cl)cc1
carcinogen call (Species: MOUSE, Strain/Sex: B6C3F1/FEMALE, Route: ORAL, Dose: 0, 5000 IN DIET FOR FIRST 48 WK FOLLOWED BY 1000 PPM IN DIET FOR LAST 57 WK, 10000 PPM IN DIET FOR 48 WK FOLLOWED BY 300, Dose: 0, 5000 IN DIET FOR FIRST 48 WK FOLLOWED BY 1000 PPM IN DIET FOR LAST 57 WK, 10000 PPM IN DIET FOR 48 WK FOLLOWED BY 300, Tumor Site: Type of Lesion: LIVER: HEPATOCELLULAR CARCINOMA OR ADENOMA): equivocal
carcinogen call (Species: MOUSE, Strain/Sex: B6C3F1/MALE, Route: ORAL, Dose: 0, 2,500, 5,000 PPM IN DIET FOR 105 WK (STUDY DURATION: 105 WK), Dose: 0, 2,500, 5,000 PPM IN DIET FOR 105 WK (STUDY DURATION: 105 WK)): inactive; negative
carcinogen call (Species: RAT, Strain/Sex: F344/FEMALE, Route: ORAL, Dose: 0, 3,500, 7,000 PPM IN DIET FOR 105 WK (STUDY DURATION: 105 WK), Dose: 0, 3,500, 7,000 PPM IN DIET FOR 105 WK (STUDY DURATION: 105 WK)): inactive; negative
carcinogen call (Species: RAT, Strain/Sex: F344/MALE, Route: ORAL, Dose: 0, 3,500, 7,000 PPM IN DIET FOR 105 WK (STUDY DURATION: 105 WK), Dose: 0, 3,500, 7,000 PPM IN DIET FOR 105 WK (STUDY DURATION: 105 WK)): inactive; negative

O=C(O)[C@H]1O[C@@H](N(O)c2ccc3c(c2)Cc2ccccc2-3)[C@H](O)[C@@H](O)[C@@H]1O
carcinogen call (Species: RAT, Strain/Sex: F344/MALE, Route: INJECTION, Dose: 0, 1 UMOL IN 0.5 ML OF SOLUTION CONTAINING 0.4 ML PHOSPHATE BUFFERED SALINE/ GENTAMYCIN (PH 7) AND 0.1 ML DMSO INJECTED, Tumor Site: Type of Lesion: BLADDER: CARCINOMA): active; positive

CC1(C)S[C@@H]2[C@H](NC(=O)COc3ccccc3)C(=O)N2[C@H]1C(=O)O
carcinogen call (Species: MOUSE, Strain/Sex: B6C3F1/FEMALE, Route: GAVAGE, Dose: 0, 500, 1000 MG/KG IN CORN OIL 5 D/WK FOR 103-104 WK (STUDY DURATION: 106 WK), Dose: 0, 500, 1000 MG/KG IN CORN OIL 5 D/WK FOR 103-104 WK (STUDY DURATION: 106 WK)): inactive; negative
carcinogen call (Species: MOUSE, Strain/Sex: B6C3F1/FEMALE, Route: GAVAGE, Dose: 0, 500, 1000 MG/KG IN CORN OIL 5D/WK FOR 104 WK, Dose: 0, 500, 1000 MG/KG IN CORN OIL 5D/WK FOR 104 WK): inactive; negative
carcinogen call (Species: MOUSE, Strain/Sex: B6C3F1/MALE, Route: GAVAGE, Dose: 0, 500, 1000 MG/KG IN CORN OIL 5 D/WK FOR 103-104 WK (STUDY DURATION: 106 WK), Dose: 0, 500, 1000 MG/KG IN CORN OIL 5 D/WK FOR 103-104 WK (STUDY DURATION: 106 WK)): inactive; negative
carcinogen call (Species: MOUSE, Strain/Sex: B6C3F1/MALE, Route: GAVAGE, Dose: 0, 500, 1000 MG/KG IN CORN OIL 5D/WK FOR 104 WK, Dose: 0, 500, 1000 MG/KG IN CORN OIL 5D/WK FOR 104 WK): inactive; negative
carcinogen call (Species: RAT, Strain/Sex: F344/FEMALE, Route: GAVAGE, Dose: 0, 500, 1000 MG/KG IN CORN OIL 5 D/WK FOR 103-104 WK (STUDY DURATION: 106 WK), Dose: 0, 500, 1000 MG/KG IN CORN OIL 5 D/WK FOR 103-104 WK (STUDY DURATION: 106 WK)): inactive; negative
carcinogen call (Species: RAT, Strain/Sex: F344/FEMALE, Route: GAVAGE, Dose: 0, 500, 1000 MG/KG IN CORN OIL 5D/WK FOR 103 WK (STUDY DURATION: 104 WK), Dose: 0, 500, 1000 MG/KG IN CORN OIL 5D/WK FOR 103 WK (STUDY DURATION: 104 WK)): inactive; negative
carcinogen call (Species: RAT, Strain/Sex: F344/MALE, Route: GAVAGE, Dose: 0, 500, 1000 MG/KG IN CORN OIL 5 D/WK FOR 103-104 WK (STUDY DURATION: 106 WK), Dose: 0, 500, 1000 MG/KG IN CORN OIL 5 D/WK FOR 103-104 WK (STUDY DURATION: 106 WK)): inactive; negative
carcinogen call (Species: RAT, Strain/Sex: F344/MALE, Route: GAVAGE, Dose: 0, 500, 1000 MG/KG IN CORN OIL 5D/WK FOR 103 WK (STUDY DURATION: 104 WK), Dose: 0, 500, 1000 MG/KG IN CORN OIL 5D/WK FOR 103 WK (STUDY DURATION: 104 WK)): inactive; negative

NC=O
carcinogen call (Species: Mouse, Strain/Sex: B5C3F1/Female, Route: Oral, Dose: 0, 20, 40, 80 mg/kg in deioninzed water, by gavage, 5 d/wk for 104-105 wk, Tumor Site: Type of Lesion: Liver: hepatocellular adenoma and carcinoma (combined)): active; positive, authors described results as equivocal evidence of carcinogenic activi
carcinogen call (Species: Mouse, Strain/Sex: B6C3F1/Male, Route: Oral, Dose: 0, 20, 40, 80 mg/kg in deioninzed water, by gavage, 5 d/wk for 104-105 wk, Tumor Site: Type of Lesion: Liver: hemangiosarcoma): active; positive, authors described results as clear evidence of carcinogenic activity
carcinogen call (Species: Rat, Strain/Sex: F344/N/Female, Route: Oral, Dose: 0, 20, 40, 80 mg/kg in deioninzed water, by gavage, 5 d/wk for 104-105 wk): inactive; negative
carcinogen call (Species: Rat, Strain/Sex: F344/N/Male, Route: Oral, Dose: 0, 20, 40, 80 mg/kg in deioninzed water, by gavage, 5 d/wk for 104-105 wk): inactive; negative

CCN(CC)C(=S)SSC(=S)N(CC)CC
carcinogen call (Species: MOUSE, Strain/Sex: B6C3F1/FEMALE, Route: ORAL, Dose: 0, 100, 500 PPM IN DIET, Dose: 0, 100, 500 PPM IN DIET): inactive; negative
carcinogen call (Species: MOUSE, Strain/Sex: B6C3F1/MALE, Route: ORAL, Dose: 0, 500, 2000 PPM IN DIET, Dose: 0, 500, 2000 PPM IN DIET): inactive; negative
carcinogen call (Species: RAT, Strain/Sex: F344/FEMALE, Route: ORAL, Dose: 0, 300, 600 PPM IN DIET, Dose: 0, 300, 600 PPM IN DIET): inactive; negative
carcinogen call (Species: RAT, Strain/Sex: F344/MALE, Route: ORAL, Dose: 0, 300, 600 PPM IN DIET, Dose: 0, 300, 600 PPM IN DIET): inactive; negative

C=CC(O)c1ccc(OC)cc1 (stereo not given)
carcinogen call (Species: MOUSE, Strain/Sex: CD-1/MALE, Route: SUBCUTANEOUS, Dose: 0, 0.17 UMOL IN 0.025 ML TRIOCTANOIN WITHIN 24 H AFTER BIRTH THEN 0, 0.47 UMOL IN 0.05 ML TRIOCTANOIN ON D 8, 0, 0.95 UM, Dose: 0, 0.17 UMOL IN 0.025 ML TRIOCTANOIN WITHIN 24 H AFTER BIRTH THEN 0, 0.47 UMOL IN 0.05 ML TRIOCTANOIN ON D 8, 0, 0.95 µM, Tumor Site: Type of Lesion: LIVER: HEPATOCELLULAR CARCINOMA): active; positive

C=COC(N)=O
carcinogen call (Species: MOUSE, Strain/Sex: B6C3F1/MALE, Route: INTRAPERITONEAL, Dose: 0, 2.5 UG/G BW IN 10 µL TRIOCTANOIN ONCE (STUDY DURATION: 9 MO), Tumor Site: Type of Lesion: LIVER: HEPATOMA): active; positive
carcinogen call (Species: MOUSE, Strain/Sex: CD-1/FEMALE, Route: DERMAL, Dose: 0, 11.5 UMOL IN WEEKS 1 AND 2 THEN 5.7 UMOL IN WEEKS 3 AND 4 FOLLOWED BY 3.8 UMOL/WK FOR 28 WK (STUDY DURATION: 42 WK), Tumor Site: Type of Lesion: SKIN: PAPILLOMA, CARCINOMA): active; positive
carcinogen call (Species: MOUSE, Strain/Sex: STRAIN-A/FEMALE, Route: INTRAPERITONEAL, Dose: 0, 34, 68 NMOL/G BW IN 5 µL TRIOCTANOIN ONCE (STUDY DURATION: 6 MO), Dose: 0, 34, 68 NMOL/G BW IN 5 µL TRIOCTANOIN ONCE (STUDY DURATION: 6 MO), Tumor Site: Type of Lesion: LUNG: ADENOMA): active; positive
carcinogen call (Species: RAT, Strain/Sex: SPRAGUE-DAWLEY/FEMALE, Route: INTRAMUSCULAR, Dose: 0, 1.15, 2.3 UMOL IN 0.25 ML TRIOCTANOIN 1/WK FOR 10 WK (STUDY DURATION: 18 MO), Dose: 0, 1.15, 2.3 UMOL IN 0.25 ML TRIOCTANOIN 1/WK FOR 10 WK (STUDY DURATION: 18 MO)): inactive; negative
